Experiments:
human DHOD [1] = target: T1, human DHOD (Homo sapiens, UniProt Q02127); assay: Measurement of DHOD inhibitory activity (DCIP reduction, end point assay); type: biochemical; conditions: for inhibition at 0.2 µM: read-out: DHOD inhibition rate (%) 200 nM, 200 nM compound; for IC50: read-out: IC50 (nM) human DHOD (HsDHOD)
Experimental: The compounds of the present invention were used and measured for their DHOD inhibitory activity at concentrations of 200 nM and 1000 nM.
Reduction of DCIP was measured at 600 nm over 20 minutes.

human DHOD [2] = target: T1, human DHOD; assay: as above; type: biochemical; conditions: read-out: DHOD inhibition rate (%) 100 nM; 100 nM compound

T1 sequence (Q02127 whole entry): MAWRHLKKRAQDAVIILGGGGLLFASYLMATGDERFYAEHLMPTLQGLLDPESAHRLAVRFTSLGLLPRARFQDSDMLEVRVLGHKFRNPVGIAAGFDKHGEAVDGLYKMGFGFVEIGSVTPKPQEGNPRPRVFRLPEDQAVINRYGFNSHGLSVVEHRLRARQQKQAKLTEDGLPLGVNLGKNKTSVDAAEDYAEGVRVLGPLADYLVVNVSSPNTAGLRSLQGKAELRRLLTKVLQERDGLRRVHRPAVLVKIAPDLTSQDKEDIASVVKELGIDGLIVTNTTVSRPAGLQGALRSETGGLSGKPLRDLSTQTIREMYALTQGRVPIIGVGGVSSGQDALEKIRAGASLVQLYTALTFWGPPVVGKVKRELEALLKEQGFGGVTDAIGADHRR

| melting point [°C] | inhibition at 0.2 µM (human DHOD [1]) [%] | IC50 (human DHOD [1]) [nM] | inhibition at 0.1 µM (human DHOD [2]) [%] | Structure (SMILES) |
| --- | --- | --- | --- | --- |
| 62 | – | – | – | COC(=O)c1ccc(O)c(C/C=C(\C)CCC=C(C)C)c1O [compound 161, Methyl (E)-3-(3,7-dimethyl-2,6-octadienyl)-2,4-dihydroxybenzoate] |
| – | 75 | 67 ± 7 | 98 | COC(C)(C)CCC/C(C)=C/Cc1c(O)c(Cl)c(C)c(C=O)c1O [231-9-OMe, 3-Chloro-4,6-dihydroxy-5-[(E)-7-methoxy-3,7-dimethyl-2-octeny]-2-methyl benzaldehyde] |
| 119 to 120 | 87 | 24 ± 3 | 96 | CC(=O)/C(C)=C/CC/C(C)=C/Cc1c(O)c(Cl)c(C)c(C=O)c1O [276-9] |
| 73 | 51 | 326 ± 41 | 85 | Cc1c(Cl)c(O)c(/C=C/CCCCCCOC(=O)C(C)C)c(O)c1C=O [200-12-OCOiPr, (E)-8-(3-Chloro-5-formyl-2,6-dihydroxy-4-methylphenyl)-7-octenyl isobutylate] |
| 69 to 70 | – | – | – | Cc1c(Cl)c(O)c(/C=C/CCCCCCCOC(=O)C(C)(C)C)c(O)c1C=O [200-13-OPiv, (E)-9-(3-Chloro-5-formyl-2,6-dihydroxy-4-methylphenyl)-8-nonenyl pivalate] |
| 82 to 83 | – | – | – | Cc1c(Cl)c(O)c(CCCCCCCCCCCC(=O)OC(C)C)c(O)c1C=O [215-15-COO^IPr, Isopropyl 12-(3-chloro-5-formyl-2,6-dihydroxy-4-methylphenyl)dodecanate] |
| – | 69 | 1050 ± 214 | 100 | CC(C)=CCC/C(C)=C/Cc1c(O)c(Cl)c(C)c(C=O)c1O [CC-B, (E)-3-Chloro-4,6-dihydroxy-5-(3,7-dimethyl-2,6-octadienyl)-2-methylbenzaldehyde] |
| – | 82 | 67 ± 3 | 104 | C/C(=C\COC(=O)C(C)(C)C)CC/C(C)=C/Cc1c(O)c(Cl)c(C)c(C=O)c1O [287-12-OPiv, (2E,6E)-8-(3-Chloro-5-formyl-2,6-dihydroxy-4-methylphenyl)-3,6-dimethyl-2,6-octadienyl pivalate] |
| 35 to 36 | 86 | 33 ± 3 | 97 | C/C(=C\Cc1c(O)c(Cl)c(C)c(C=O)c1O)CC/C=C(\C)COC1CCCO1 (stereo not drawn) [236-12-OTHF, 3-Chloro-5-(2E,6E)-3,7-dimethyl-8-(tetrahydrofuran-2-yloxy)-2,6-octadienyl-4,6-dihydroxy-2-methylbenzaldehyde] |
| 85 | – | – | – | CC(C)=CCC/C(C)=C/Cc1c(O)ccc(C=O)c1O [compound 217, (E)-2,4-Dihydroxy-3-(3,7-dimethyl-2,6-octadienyl)benzaldehyde] |
| 87 to 88 | – | – | – | COC(=O)CCCCCCCCCc1c(O)c(Cl)c(C)c(C=O)c1O [215-12-COOMe, Methyl 10-(3-chloro-5-formyl-2,6-dihydroxy-4-methylphenyl)decanate] |
| 72 to 73 | – | – | – | CCC(=O)OCCCCCCC/C=C/c1c(O)c(Cl)c(C)c(C=O)c1O [200-13-OCOEt, (E)-9-(3-Chloro-5-formyl-2,6-dihydroxy-4-methylphenyl)-8-nonenyl propionate] |
| 62 | – | – | – | Cc1c(Cl)c(O)c(CCCCCCCCCOC(=O)C(C)(C)C)c(O)c1C=O [215-13-OPiv, 9-(3-Chloro-5-formyl-2,6-dihydroxy-4-methylphenyl)nonyl pivalate] |
| 70 to 71 | – | – | – | Cc1c(Cl)c(O)c(CCCCCCCC2CC(=O)C(C)(C)O2)c(O)c1C=O (stereo not drawn) [compound 250, 5-Chloro-2,4-dihydroxy-6-methyl-3-[7-(3,3-dimethyl-4-oxo-2-oxacyclopentyl)heptyl]benzaldehyde] |
| 65 to 67 | – | – | – | CCCCCC(C)CCc1c(O)c(Cl)c(C)c(C=O)c1O (stereo not drawn) [265-8, 3-Chloro-4,6-dihydroxy-2-methyl-5-(3-methyloctyl)benzaldehyde] |
| 111.2 to 111.4 | 90 | 31 ± 3 | 98 | C/C(C=O)=C\CC/C(C)=C/Cc1c(O)c(Cl)c(C)c(C=O)c1O [274-9, 3-Chloro-5-[(2E,6E)-3,7-dimethyl-8-oxo-2,6-octadienyl]-4,6-dihydroxy-2-methylbenzaldehyde] |
| 70 to 71 | – | – | – | Cc1c(Cl)c(O)c(CCCCCCCCOC(=O)C(C)(C)C)c(O)c1C=O [215-12-OPiv, 8-(3-Chloro-5-formyl-2,6-dihydroxy-4-methylphenyl)octyl pivalate] |
| 63 to 64 | – | – | – | Cc1c(Cl)c(O)c(CCCCCCCOC(=O)C(C)(C)C)c(O)c1C=O [215-11-OPiv, 7-(3-Chloro-5-formyl-2,6-dihydroxy-4-methylphenyl)heptyl pivalate] |
| 70 to 72 | – | – | – | C/C(=C\Cc1c(O)c(Cl)cc(C=O)c1O)CC/C=C(\C)C1CC(=O)C(C)(C)O1 (stereo not drawn) [compound 209, 5-Chloro-2,4-dihydroxy-3-[(2E,6E)-7-(5,5-dimethyl-4-oxotetrahydrofuran-2-yl)-3,7-dimethyl-2,6-heptadienyl]benzaldehyde] |

| melting point [°C] | inhibition at 0.2 µM (human DHOD [1]) [%] | IC50 (human DHOD [1]) [nM] | inhibition at 0.1 µM (human DHOD [2]) [%] | Structure (SMILES) |
| --- | --- | --- | --- | --- |
| 46 to 47 | – | – | – | COC(=O)c1c(C)cc(O)c(C/C=C(\C)CCC=C(C)C)c1O [compound 146, Methyl (E)-3-(3,7-dimethyl-2,6-octadienyl)-2,4-dihydroxy-6-methylbenzoate] |
| 120 to 121 | – | – | – | CC(C)=CCC/C(C)=C/Cc1c(O)cc(C)c(C=O)c1O [compound 216, (E)-2,4-Dihydroxy-3-(3,7-dimethyl-2,6-octadienyl)-6-methylbenzaldehyde] |
| 94 to 95 | – | – | – | CC(C)=CCC/C(C)=C/Cc1c(O)c(Cl)cc(C=O)c1O [compound 224, (E)-5-Chloro-2,4-dihydroxy-3-(3,7-dimethyl-2,6-octadienyl)benzaldehyde] |
| 49 | – | – | – | Cc1c(Cl)c(O)c(CCCCCCCCCC(=O)OC(C)C)c(O)c1C=O [215-13-COO^IPr, Isopropyl 10-(3-chloro-2,6-dihydroxy-5-formyl-4-methylphenyl)decanate] |
| 57 to 58 | – | – | – | Cc1c(Cl)c(O)c(/C=C/CCCCCCOC(=O)C(C)(C)C)c(O)c1C=O [200-12-OPiv, (E)-8-(3-Chloro-5-formyl-2,6-dihydroxy-4-methylphenyl)-7-octenyl pivalate] |
| 35 to 36 | – | – | – | C/C(=C\Cc1c(O)c(Cl)c(C)c(C=O)c1O)CC/C=C(\C)C1OC(C)C(C)O1 (stereo not drawn) [509-11, 3-Chloro-5-((2E,6E)-7-(4,5-dimethyl-1,3-dioxolan-2-yl)-3-methyl-2,6-octadienyl)-4,6-dihydroxy-2-methylbenzaldehyde] |
| – | 58 | 123 ± 18 | 94 | C/C(=C\Cc1c(O)c(Cl)c(C)c(C=O)c1O)CCCCOC(=O)C(C)(C)C [264-11-OPiv, (5E)-7-(3-Chloro-5-formyl-2,6-dihydroxy-4-methylphenyl)-5-methyl-5-heptenyl pivalate] |
| – | 72 | 98 ± 5 | 102 | C/C(=C\Cc1c(O)c(Cl)c(C)c(C=O)c1O)CC/C=C(\C)COC(=O)C(C)(C)C [234-12-OPiv, (2E,6E)-8-(3-Chloro-5-formyl-2,6-dihydroxy-4-methylphenyl)-2,6-dimethyl-2,6-octadienyl pivalate] |
| – | 76 | 60 ± 21 | 95 | COC(CC(=O)C(C)(C)C)/C(C)=C/CC/C(C)=C/Cc1c(O)c(Cl)c(C)c(C=O)c1O (stereo not drawn) [271-12, 3-Chloro-4,6-dihydroxy-2-methyl-5-(2E,6E)-(8-methoxy-3,7,11,11-tetramethyl-10-oxo-2,6-dodecadienyl)benzaldehyde] |
| – | 57 | 146 ± 19 | 87 | C/C(=C\Cc1c(O)c(Cl)c(C)c(C=O)c1O)CC/C=C/COC(=O)C(C)(C)C [07-11-116-4] |
| 71 | – | – | – | COC(=O)c1cc(Cl)c(O)c(C/C=C(\C)CCC=C(C)C)c1O |
| 130 to 131 | – | – | – | Cc1c(Cl)c(O)c(CCCCCCCCCCCC(=O)O)c(O)c1C=O [215-13-COOH, 12-(3-Chloro-5-formyl-2,6-dihydroxy-4-methylphenyl)dodecanoic acid] |
| 36 to 37 | 79 | 50 ± 5 | 100 | C/C(=C\Cc1c(O)c(Cl)c(C)c(C=O)c1O)CC/C=C(\C)CCC1OC1(C)C (stereo not drawn) [281-12, 3-Chloro-5-(2E,6E)-3,7-dimethyl-9-(3,3-dimethyloxiran-2-yl)-2,6-nonadienyl-4,6-dihydroxy-2-methylbenzaldehyde] |
| 129 to 130 | – | – | – | Cc1c(Cl)c(O)c(CCCCCCCCO)c(O)c1C=O [215-9-OH, 5-Chloro-2,4-dihydroxy-3-(8-hydroxyoctyl)-6-methylbenzaldehyde] |
| 149 to 150 | – | – | – | Cc1c(Cl)c(O)c(CCCCCCCC(=O)O)c(O)c1C=O [215-9-COOH, 8-(3-Chloro-5-formyl-2,6-dihydroxy-4-methylphenyl)octanoic acid] |
| – | 74 | 71 ± 2 | 90 | CCCCC/C(C)=C/Cc1c(O)c(Cl)c(C)c(C=O)c1O [264-8, (E)-3-Chloro-4,6-dihydroxy-2-methyl-5-(3-methyl-2-octenyl)benzaldehyde] |
| 93 to 94 | – | – | – | Cc1c(Cl)c(O)c(CCCCCCC(C)C)c(O)c1C=O [279-8, 3-Chloro-4,6-dihydroxy-2-methyl-5-(7-methyloctyl)benzaldehyde] |
| 63 to 64 | – | – | – | CCC(=O)OCCCCCCCCc1c(O)c(Cl)c(C)c(C=O)c1O [215-12-OCOEt, 8-(3-Chloro-5-formyl-2,6-dihydroxy-4-methylphenyl)octyl propionate] |
| 99 to 99.7 | 82 | 44 ± 5 | 103 | C/C(=C\CC/C(C)=C/Cc1c(O)c(Cl)c(C)c(C=O)c1O)CO [236-9-OH, 3-Chloro-4,6-dihydroxy-5-(2E,6E)-8-hydroxy-3,7-dimethyl-2,6-octadienyl-2-methylbenzaldehyde] |
